Columns and labels:
clinical = details: human, in vivo; for Cmax / AUC / AUC(0-t): 100 mg, after ladostigil tartrate 100 mg twice daily; for AUC: AUC (M)
MAO-A = molecular target: T1, MAO-A (Homo sapiens, UniProt P21397); test: Decrease of plasma DHPG in patients (HPLC analysis of MAO-A inhibition); format: in vivo
T1 construct: from tissue; host or cells: patients in vivo; DHPG measured in plasma
T1 sequence (P21397 1-527): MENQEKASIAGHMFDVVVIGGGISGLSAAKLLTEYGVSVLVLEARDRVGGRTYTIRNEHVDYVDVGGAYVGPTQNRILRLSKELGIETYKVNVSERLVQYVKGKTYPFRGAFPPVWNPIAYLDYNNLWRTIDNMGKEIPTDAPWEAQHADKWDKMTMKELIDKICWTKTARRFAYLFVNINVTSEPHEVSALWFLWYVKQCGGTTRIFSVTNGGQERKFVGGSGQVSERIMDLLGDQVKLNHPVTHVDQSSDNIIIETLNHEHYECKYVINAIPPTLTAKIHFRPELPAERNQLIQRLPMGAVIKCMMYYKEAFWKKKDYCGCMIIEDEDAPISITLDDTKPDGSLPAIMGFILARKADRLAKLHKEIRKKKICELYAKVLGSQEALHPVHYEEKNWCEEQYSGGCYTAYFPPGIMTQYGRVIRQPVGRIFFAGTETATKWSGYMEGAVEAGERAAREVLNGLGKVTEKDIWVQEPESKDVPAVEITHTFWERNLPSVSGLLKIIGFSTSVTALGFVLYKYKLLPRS
Description: 8 patients, 7 female and 1 male, ages 62-81 with a median age of 68 and above with diagnosis of probable Alzheimer's disease according to DSM-IV (290.00 or 290.10) and NINCDS-ADRDA criteria were administered ladostigil tartrate according to the following schedule:
Decrease of 3,4-dihydroxyphenylglycol (“DHPG”) in plasma is indicative of monoamine oxidase inhibition, especially in the brain. DHPG plasma concentrations were measured in 6 of the aforementioned patients at baseline and at termination analysis, using HPLC equipped with an electrochemical detector.
The decrease in DHPG concentration in the six patients was determined. The average decrease in DHPG concentration was determined to be 57% with a standard deviation of 29.

Cholinesterase = Cholinesterase inhibition in patients at pre-dose; format: in vivo, human; details: at maintenance and at termination analyses
Description: 8 patients, 7 female and 1 male, ages 62-81 with a median age of 68 and above with diagnosis of probable Alzheimer's disease according to DSM-IV (290.00 or 290.10) and NINCDS-ADRDA criteria were administered ladostigil tartrate according to the following schedule: […]

Q: What does the source list for `C#CCN[C@@H]1CCc2ccc(OC(=O)N(C)CC)cc21` [ladostigil, R(+)-6-(N-methyl, N-ethyl-carbamoyloxy)-N′-propargyl-1-aminoindan]?
A: half-life (clinical; both): 1.08 h; Cmax (clinical; both, Cmax (M), mean, mean of patients, maintenance analysis Week 4): 2.02e-06 M; Cmax (clinical; both, Cmax (T), mean, mean of patients, termination analysis Week 9): 1.88e-06 M; AUC (clinical; Patient 1, maintenance analysis Week 4): 314 ng·h/mL; AUC (clinical; Patient 2, maintenance analysis Week 4): 589 ng·h/mL; AUC (clinical; Patient 3, maintenance analysis Week 4): 1000 ng·h/mL; AUC (clinical; Patient 4, maintenance analysis Week 4): 927 ng·h/mL; AUC (clinical; Patient 5, maintenance analysis Week 4): 436 ng·h/mL; AUC (clinical; Patient 6, maintenance analysis Week 4): 551 ng·h/mL; AUC (clinical; Patient 7, maintenance analysis Week 4): 52 ng·h/mL; AUC (clinical; Patient 8, maintenance analysis Week 4): 500 ng·h/mL; AUC(0-t) (clinical; Patient 1, termination analysis Week 9): 246 ng·h/mL; AUC(0-t) (clinical; Patient 2, termination analysis Week 9): 2300 ng·h/mL; AUC(0-t) (clinical; Patient 3, termination analysis Week 9): 1450 ng·h/mL; AUC(0-t) (clinical; Patient 4, termination analysis Week 9): 482 ng·h/mL; AUC(0-t) (clinical; Patient 5, termination analysis Week 9): 398 ng·h/mL; AUC(0-t) (clinical; Patient 6, termination analysis Week 9): 901 ng·h/mL; AUC(0-t) (clinical; Patient 7, termination analysis Week 9): 118 ng·h/mL; AUC(0-t) (clinical; Patient 8, termination analysis Week 9): 350 ng·h/mL; Cmax (clinical; Cmax (M), Patient 1, maintenance analysis Week 4): 1.1e-06 M; Cmax (clinical; Cmax (M), Patient 2, maintenance analysis Week 4): 1.2e-06 M; Cmax (clinical; Cmax (M), Patient 3, maintenance analysis Week 4): 3.5e-06 M; Cmax (clinical; Cmax (M), Patient 4, maintenance analysis Week 4): 3.9e-06 M; Cmax (clinical; Cmax (M), Patient 5, maintenance analysis Week 4): 1.4e-06 M; Cmax (clinical; Cmax (M), Patient 6, maintenance analysis Week 4): 1.5e-06 M; Cmax (clinical; Cmax (M), Patient 7, maintenance analysis Week 4): 2e-07 M; Cmax (clinical; Cmax (M), Patient 8, maintenance analysis Week 4): 1.7e-06 M; Cmax (clinical; Cmax (T), Patient 1, termination analysis Week 9): 7e-07 M; Cmax (clinical; Cmax (T), Patient 2, termination analysis Week 9): 3.8e-06 M; Cmax (clinical; Cmax (T), Patient 3, termination analysis Week 9): 3.9e-06 M; Cmax (clinical; Cmax (T), Patient 4, termination analysis Week 9): 1.6e-06 M; Cmax (clinical; Cmax (T), Patient 5, termination analysis Week 9): 1e-06 M; Cmax (clinical; Cmax (T), Patient 6, termination analysis Week 9): 2.5e-06 M; Cmax (clinical; Cmax (T), Patient 7, termination analysis Week 9): 4e-07 M; Cmax (clinical; Cmax (T), Patient 8, termination analysis Week 9): 1.3e-06 M; DHPG (T) (MAO-A; Patient 1, termination analysis Week 9 vs baseline): −63%; DHPG (T) (MAO-A; Patient 2, termination analysis Week 9 vs baseline): −86%; DHPG (T) (MAO-A; Patient 5, termination analysis Week 9 vs baseline): >−79%; DHPG (T) (MAO-A; Patient 6, termination analysis Week 9 vs baseline): −73%; DHPG (T) (MAO-A; Patient 7, termination analysis Week 9 vs baseline): −30%; DHPG (T) (MAO-A; Patient 8, termination analysis Week 9 vs baseline): −13%; Cholinesterase inhibition at pre-dose, in words (Cholinesterase): evident

Reference: patent US8609719B2, “Propargylated aminoindans, processes for preparation, and uses thereof” (priority 2006, dated 2013)
